Calls of active or inactive are those of the source. The rule behind the calls is not given here.
Experiments:
[1] = molecular target: LC3/Epithelial discoidin domain-containing receptor 1 (Homo sapiens, UniProt Q08345+Q9BXW4+Q9GZQ8+Q9H492); test: Autophagosome tethering activity at DDR1 in human NCI-H23 cells assessed as protein degradation at 0.3 uM measured after 24 hrs by immunoblotting analysis relative to control; assay type: cell-based
[2] = system: NCI-H23; test: Inhibition of cell migration in human NCI-H23 cells at 1 uM incubated for 24 hrs by transwell assay; assay type: functional, cell-based
[3] = system: NCI-H23; test: Inhibition of cell invasion in human NCI-H23 cells at 1 uM incubated for 24 hrs by transwell assay; assay type: functional, cell-based
[4] = system: NCI-H23; test: Inhibition of tumorigenicity in human NCI-H23 cells at 1 uM incubated for 10 days by colony formation assay; assay type: functional, cell-based; conditions: time 10.0 day

Compound: CCc1ccc(C(=O)Nc2cc(CN3CCN(CCCCCCCC(=O)NCCCN(C(=O)c4ccc(C)cc4)[C@@H](c4nc5cc(Cl)ccc5c(=O)n4Cc4ccccc4)C(C)C)CC3)cc(C(F)(F)F)c2)cc1C#Cc1cnc2ccnn2c1
- Activity [1]: 6%

Compound: CCc1ccc(C(=O)Nc2cc(CN3CCN(C(=O)CCCCCCCNC(=O)COc4c(Br)cc(/C=C5\C(=O)Nc6ccc(I)cc65)cc4Br)CC3)cc(C(F)(F)F)c2)cc1C#Cc1cnc2ccnn2c1
- Activity [1]: 9%

Compound: CCc1ccc(C(=O)Nc2cc(CN3CCN(CCCC(=O)NCCCN(C(=O)c4ccc(C)cc4)[C@@H](c4nc5cc(Cl)ccc5c(=O)n4Cc4ccccc4)C(C)C)CC3)cc(C(F)(F)F)c2)cc1C#Cc1cnc2ccnn2c1
- Activity [1]: 6%

Compound: CCc1ccc(C(=O)Nc2cc(CN3CCN(C(=O)COCCNC(=O)COc4c(Br)cc(/C=C5\C(=O)Nc6ccc(I)cc65)cc4Br)CC3)cc(C(F)(F)F)c2)cc1C#Cc1cnc2ccnn2c1
- Activity [1]: 0%

Compound: CCc1ccc(C(=O)Nc2cc(CN3CCN(C(=O)COCCOCCOCCNC(=O)COc4c(Br)cc(/C=C5\C(=O)Nc6ccc(I)cc65)cc4Br)CC3)cc(C(F)(F)F)c2)cc1C#Cc1cnc2ccnn2c1
- Activity [1]: 0%

Compound: CCc1ccc(C(=O)Nc2cc(CN3CCN(CC(=O)NCCCN(C(=O)c4ccc(C)cc4)[C@@H](c4nc5cc(Cl)ccc5c(=O)n4Cc4ccccc4)C(C)C)CC3)cc(C(F)(F)F)c2)cc1C#Cc1cnc2ccnn2c1
- Activity [1]: 4%

Compound: CCc1ccc(C(=O)Nc2cc(CN3CCN(C)CC3)cc(C(F)(F)F)c2)cc1C#Cc1cnc2ccnn2c1
- inhibition [2]: inactive
- inhibition [3]: inactive
- inhibition [4]: inactive

Compound: CCc1ccc(C(=O)Nc2cc(CN3CCN(C(=O)CCCCCNC(=O)COc4c(Br)cc(/C=C5\C(=O)Nc6ccc(I)cc65)cc4Br)CC3)cc(C(F)(F)F)c2)cc1C#Cc1cnc2ccnn2c1
- Activity [1]: 12%

Compound: CCc1ccc(C(=O)Nc2cc(CN3CCN(CCOCCOCC(=O)NCCCN(C(=O)c4ccc(C)cc4)[C@@H](c4nc5cc(Cl)ccc5c(=O)n4Cc4ccccc4)C(C)C)CC3)cc(C(F)(F)F)c2)cc1C#Cc1cnc2ccnn2c1
- Activity [1]: 0%

From ChEMBL document CHEMBL5506046, “Discovery of LLC355 as an Autophagy-Tethering Compound for the Degradation of Discoidin Domain Receptor 1” (J Med Chem, 2024)
